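Each compound was tested at five concentrations against cells in 96-well plates for 48 hours. Abbreviation: GI50, concentration required for 50% inhibition of growth.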 The source made the active and inactive calls. Rule as the data show it: active = GI50 up to about 1.1 µM and inactive = higher.
How the values were obtained:
Assay in all cases: NCI tumour cell line growth inhibition, 48 h
SF-268 = system: SF-268
SN12C = system: SN12C
SF-295 = system: SF-295
UACC-257 = system: UACC-257
A549 = system: A549
DU-145 = system: DU-145
SF-539 = system: SF-539
NCI-H460 = system: NCI-H460
COLO 205 = system: COLO 205
K562 = system: K562
BT-549 = system: BT-549
HCT-15 = system: HCT-15
Malme-3M = system: Malme-3M
ACHN = system: ACHN
SNB-19 = system: SNB-19
CAKI-1 = system: CAKI-1
LOX IMVI = system: LOX IMVI
OVCAR-4 = system: OVCAR-4
NCI/ADR-RES = system: NCI/ADR-RES
UACC-62 = system: UACC-62

Compound | GI50 (SF-268) | GI50 (SN12C) | GI50 (SF-295) | GI50 (UACC-257) | GI50 (A549) | GI50 (DU-145) | GI50 (SF-539) | GI50 (NCI-H460) | GI50 (COLO 205) | GI50 (K562) | GI50 (BT-549) | GI50 (HCT-15) [µM] | GI50 (Malme-3M) | GI50 (ACHN) | GI50 (SNB-19) | GI50 (CAKI-1) | GI50 (LOX IMVI) | GI50 (OVCAR-4) | GI50 (NCI/ADR-RES) | GI50 (UACC-62)
COc1ccccc1C[C@@H]1OC2(C=CC(=O)CC2SC(=O)c2ccccc2)O[C@H]1Cc1ccccc1OC (stereo not given in full) | 1.02 µM (active) | 2.52 µM (inactive) | 1.63 µM (inactive) | 1.51 µM (inactive) | 2.9 µM (inactive) | 3.78 µM (inactive) | 1.67 µM (inactive) | 2.44 µM (inactive) | 1.69 µM (inactive) | 2.51 µM (inactive) | 0.318 µM (active) | 1.05 | 1.77 µM (inactive) | 1.51 µM (inactive) | 1.91 µM (inactive) | 1.79 µM (inactive) | 0.582 µM (active) | 1.33 µM (inactive) | 1.46 µM (inactive) | 2.71 µM (inactive)
Cc1n[nH]c(=O)c2cc(-c3ccccc3)[nH]c12 | 59.7 µM (inactive) | 75.3 µM (inactive) | 35.8 µM (inactive) | 49.8 µM (inactive) | 49 µM (inactive) | 94.8 µM (inactive) | > 100 µM (inactive) | 48 µM (inactive) | 27.7 µM (inactive) | 38.6 µM (inactive) | 91.4 µM (inactive) | 54.2 | 64.1 µM (inactive) | 32.8 µM (inactive) | > 100 µM (inactive) | > 100 µM (inactive) | 58.7 µM (inactive) | 52.6 µM (inactive) | 57.8 µM (inactive) | 33.8 µM (inactive)
COc1ccc2c(-c3csc(-c4c[nH]c5ccccc45)n3)c[nH]c2c1 | 4.14 µM (inactive) | 7.57 µM (inactive) | 9.64 µM (inactive) | 12.7 µM (inactive) | 4.98 µM (inactive) | 9.18 µM (inactive) | 5.73 µM (inactive) | 2.29 µM (inactive) | 6.59 µM (inactive) | 3.44 µM (inactive) | 11.8 µM (inactive) | 1.45 | 4.95 µM (inactive) | 5.48 µM (inactive) | 13.2 µM (inactive) | 12.1 µM (inactive) | 2.75 µM (inactive) | 11 µM (inactive) | 6.61 µM (inactive) | 11.5 µM (inactive)
O=C(CCN1CCCC1)c1ccc(Oc2ccc(F)cc2)cc1 | 87.3 µM (inactive) | 97.1 µM (inactive) | 90.2 µM (inactive) | 43.1 µM (inactive) | > 100 µM (inactive) | 53.5 µM (inactive) | 29.9 µM (inactive) | > 100 µM (inactive) | 23 µM (inactive) | 42.4 µM (inactive) | 74 µM (inactive) | 41.3 | 27.8 µM (inactive) | > 100 µM (inactive) | > 100 µM (inactive) | 16.3 µM (inactive) | 30.5 µM (inactive) | > 100 µM (inactive) | > 100 µM (inactive) | 54.2 µM (inactive)
COc1cc2c(cc1OC)C13CCN4CC5=CCOC6CC(=O)N2C1C6C5CC43O (stereo not given) | > 100 µM (inactive) | > 100 µM (inactive) | > 100 µM (inactive) | > 100 µM (inactive) | > 100 µM (inactive) | > 100 µM (inactive) | > 100 µM (inactive) | > 100 µM (inactive) | > 100 µM (inactive) | > 100 µM (inactive) | > 100 µM (inactive) | > 100 | > 100 µM (inactive) | > 100 µM (inactive) | > 100 µM (inactive) | > 100 µM (inactive) | > 100 µM (inactive) | > 100 µM (inactive) | > 100 µM (inactive) | > 100 µM (inactive)
O=C1/C(=C2\SCC(=O)N2c2ccccc2)SC(=S)N1c1ccccc1 | 41.8 µM (inactive) | 25.6 µM (inactive) | 28.1 µM (inactive) | 42.8 µM (inactive) | 31 µM (inactive) | 34 µM (inactive) | 26.4 µM (inactive) | 39.1 µM (inactive) | 67 µM (inactive) | 36.1 µM (inactive) | 2.82 µM (inactive) | 43 | 38.2 µM (inactive) | 26.2 µM (inactive) | 50.9 µM (inactive) | 21.1 µM (inactive) | 32.7 µM (inactive) | 23.8 µM (inactive) | 27 µM (inactive) | 55 µM (inactive)
c1ccc2c[n+](CCCCCCCCCC[n+]3ccc4ccccc4c3)ccc2c1 | > 10 µM (inactive) | 0.92 µM (active) | 3.59 µM (inactive) | 3.48 µM (inactive) | 0.585 µM (active) | > 4.81 µM (inactive) | > 10 µM (inactive) | > 10 µM (inactive) | 4.76 µM (inactive) | 2.04 µM (inactive) | 2.11 µM (inactive) | > 10 | > 10 µM (inactive) | > 10 µM (inactive) | > 10 µM (inactive) | > 10 µM (inactive) | > 10 µM (inactive) | > 10 µM (inactive) | > 10 µM (inactive) | > 10 µM (inactive)
